Patent US8476434B2, “Protein kinase modulators and method of use” (Amgen Inc., priority 2004, dated 2013)

Target: T1, LCK KD GST (225-509) (Homo sapiens, UniProt P06239)
T1 construct: LCK KD GST (225-509); GST
Assay: LCK Homogenous Time Resolved Fluorescent (HTRF) kinase assay
Type: biochemical

T1 sequence (P06239 225-509): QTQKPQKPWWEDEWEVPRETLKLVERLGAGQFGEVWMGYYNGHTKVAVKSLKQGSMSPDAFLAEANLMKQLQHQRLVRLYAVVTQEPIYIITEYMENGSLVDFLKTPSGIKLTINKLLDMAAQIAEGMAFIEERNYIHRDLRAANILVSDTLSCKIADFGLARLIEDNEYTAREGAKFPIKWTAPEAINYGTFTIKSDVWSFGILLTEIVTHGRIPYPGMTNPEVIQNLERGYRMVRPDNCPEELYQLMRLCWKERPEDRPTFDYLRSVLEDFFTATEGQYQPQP

| IC50 [µM] | Compound |
| --- | --- |
| < 1 | CNc1ncnc(-c2cccnc2Oc2cc(C(=O)Nc3cc(C4CCCCC4)ccc3OC)ccc2C)n1 [N-(5-cyclohexyl-2-(methyloxy)phenyl)-4-methyl-3-((3-(4-(methylamino)-1,3,5-triazin-2-yl)-2-pyridinyl)oxy)benzamide] |
| < 1 | COc1ccc(C2CCCCC2)cc1NC(=O)c1ccc(C)c(Oc2ncccc2-c2ccncn2)c1 [N-(5-cyclohexyl-2-(methyloxy)phenyl)-4-methyl-3-((3-(4-pyrimidinyl)-2-pyridinyl)oxy)benzamide] |
| < 1 | CNc1nccc(-c2cccnc2Oc2ccc(F)c(C(=O)Nc3cc(C4CC4)ccc3N(C)CCCN(C)C)c2)n1 [N-(5-cyclopropyl-2-((3-(dimethylamino)propyl)(methyl)amino)phenyl)-2-fluoro-5-((3-(2-(methylamino)-4-pyrimidinyl)-2-pyridinyl)oxy)benzamide] |
| < 1 | Cc1ccc(C(=O)N[C@H](C)C2CCCCC2)cc1Nc1ncccc1-c1ccncn1 [N-((1R)-1-cyclohexylethyl)-4-methyl-3-((3-(4-pyrimidinyl)-2-pyridinyl)amino)benzamide] |
